According to patent publication US10584120B1, “Benzimidazole compounds and use thereof for treating Alzheimer's Disease or Huntington's Disease” (National Health Research Institutes, priority 2018, dated 2020):

Columns and labels:
in vivo = conditions: APP/PS1, mouse, po
[1] = test system: Aβ deposits in brain tissues of APP/PS1 mice; test: In vivo activity in transgenic APP/PS1 mouse model; conditions: 4-month-old APP/PS1 mice, orally administered for 3.5 months

bioavailability (in vivo) | Compound | Aβ deposits in brain tissues [1]
25% | O=C1NCC(c2ccc(-c3csc(C(F)(F)F)c3)c(F)c2F)N1c1ccc2[nH]cnc2c1 (centres unmarked) [Compound 28, 1-(1H-benzimidazol-5-yl)-5-{2,3-difluoro-4-[5-(trifluoromethyl)thiophen-3-yl]phenyl}-imidazolidin-2-one] | 
 | O=C1NC(=O)N(c2ccc3[nH]cnc3c2)C1c1ccc(-c2nc(C(F)(F)F)cs2)cc1 (centres unmarked) [Compound 37, 1-(1H-benzimidazol-5-yl)-5-{4-[4-(trifluoromethyl)-1,3-thiazol-2-yl]phenyl}imidazolidine-2,4-dione] | depletion of Aβ deposits in brain tissues
